US20210128457A1 (priority 2019, published 2021)
Where two headings read alike, the source gives them in different places.

Tests used:
[1] = assay type: in vivo, guinea pigs; settings: guinea pig
Source text: Pigmented guinea pigs with normal sound reflection (Preyer's reflex) were used. The experimental group was divided into the following four groups:
The structure of the ear includes an outer ear 110, a middle ear 120, an inner ear 130, a tympanic membrane 140, and a round window membrane 150. The outer ear 110 includes an external ear canal 111, the middle ear 120 includes auditory ossicles 121 and a middle ear cavity 122, and the inner ear 130 includes a cochlea 131. The ultrasonic device 210 was placed in the external ear canal 111, and the ultrasound waves were generated by an ultrasonic device 210. The ultrasound waves were transmitted to the middle ear cavity 122 and induced the cavitation on the microbubbles 220 located in the middle ear cavity 122.
3 W/cm^2 ultrasound was administered three times (3 minutes each time) at the mark place, and the solution in the middle ear cavity was replaced every time.
After the animal experiment (n=4), the animals were sacrificed and the tympanic bullae were taken out. About 10 μL of perilymph fluid was collected and centrifuged. The supernatant was diluted at a ratio of 1:100 for detecting fluorescence value.
After the animal experiment had finished (n=4), the animals were sacrificed and the tympanic bullae were taken out. About 10 μL of perilymph fluid was collected and centrifuged. The supernatant was diluted at a ratio of 1:100 for detecting fluorescence value.

[2] = assay type: in vitro ADME
Source text: In order to understand the effect of ultrasound transcranial administration (behind the ear) to release the drug through the round window membrane (single-membrane), and the effect of ultrasound transcanal administration to release the drug through the eardrum and the round window membrane (two-membranes), 3D-printed material extrusion was used for designing three drug delivery devices:
M1: single-membrane group (FIGS. 5A to 5C), a dialysis membrane 80 was sandwiched between the donor end 10 (Donor area) and the receiving end 20 (Receptor area) for mimicking the position of the round window membrane.
M1-20°: single-membrane with tilt group, the round window membrane of the guinea pig's ear was not perpendicular to the ear canal, so the ultrasonic probe originally perpendicular to the donor end 10 was tilted at an angle of about 20 degrees (FIG. 5C) to make the experiment more realistic. That is, after the top of the ultrasonic probe was placed at the surface center of saline in the donor end 10, the angle between the long axis direction of the ultrasonic probe and the long axis direction of the device was about 20 degrees.
M1+B: The single-membrane transcranial group (FIG. 5D) differed from the single-membrane group in that the skull 90 was placed on top of the donor end 10; and
M2: two-membranes group (FIGS. 5E to 5F), the dialysis membranes 80 were respectively sandwiched between the donor end 10 and the interval chamber 30 of the device, and between the interval chamber 30 and the receiving end 20, where the donor end 10 simulated the external ear canal, the interval chamber 30 simulated the middle ear cavity, and the receiving end 20 simulated the inner ear.
The above groups simulated the actual guinea pig's ear structure and the volume in each area. The printing material was polyethylene terephthalate (PETG). A suitable molecular weight (Orange scientific, OrDial D-Clean, MW=1000) was chosen for the dialysis membrane 80 to separate the sample from the tested drug. About 400 μL of saline was injected into the receiving end 20 to simulate the actual inner ear lymph fluid volume of the guinea pig. […] The experiment samples were injected to the donor end 10 of the single-membrane group, the single-membrane transcranial group and the single-membrane with tilt group, and were injected to the interval chamber 30 of the two-membranes group, to mimic the volume of the middle ear cavity in the middle ear cavity of the guinea pigs. The single-membrane group and the two-membranes group were subjected to 3 W/cm^2 ultrasonic waves for 3 times (1 minute each time), while the single-membrane transcranial group blocked by the skull 90 was extended to 3 times (3 minutes each time) to ensure inducing the cavitation. […] In each group, saline in the receiving end 20 before the experiment, saline in the donor end 10 or the interval chamber 30 after the experiment, and saline in the receiving end 20 after the experiment were sampled for detecting fluorescence value.

cochlear hair cells = assay: Gentamicin distribution in cochlear hair cells, RWS versus transcanal USM; settings: stood 3 minutes without ultrasound
Source text: Because phalloidin binds to the cytoskeletal actin, it is used to mark the location of hair cells. […] Merge column is the overlay of the left two columns, it is more obvious to see the distribution of gentamicin in the cochlea. […] The green dots indicated the uptake of gentamicin in the hair cells.

Row | relative fluorescence units of perilymph fluid ([1]; RWS group A, stood 3 minutes without ultrasound) [RFU] | relative fluorescence units of perilymph fluid ([1]; RWS group B, stood 9 minutes without ultrasound) [RFU] | ratio of permeability transcanal USM/RWS group A [1] | ratio of permeability transcranial USM/RWS group B [1] | relative fluorescence units of perilymph fluid ([1]; transcanal group (USM), 3 W/cm^2, 3 times 1 minute) [RFU] | relative fluorescence units of perilymph fluid ([1]; transcranial group (USM), 3 W/cm^2, 3 times 3 minutes) [RFU] | ratio of permeability USM/RWS ([2]; M1+B single-membrane transcranial group) | relative fluorescence units of saline in the receiving end ([2]; M1+B single-membrane transcranial group, RWS) [RFU] | relative fluorescence units of saline in the receiving end ([2]; M1+B single-membrane transcranial group, USM, 3 W/cm^2, 3 times 3 minutes) [RFU] | ratio of permeability USM/RWS ([2]; M1-20° single-membrane with tilt group) | relative fluorescence units of saline in the receiving end ([2]; M1-20° single-membrane with tilt group, RWS) [RFU] | relative fluorescence units of saline in the receiving end ([2]; M1-20° single-membrane with tilt group, USM) [RFU] | ratio of permeability USM/RWS ([2]; M1 single-membrane group) | relative fluorescence units of saline in the receiving end ([2]; M1 single-membrane group, USM, 3 W/cm^2, 3 times 1 minute) [RFU] | relative fluorescence units of saline in the receiving end ([2]; M1 single-membrane group, round window soaking (RWS)) [RFU] | ratio of permeability USM/RWS ([2]; M2 two-membranes group) | relative fluorescence units of saline in the receiving end ([2]; M2 two-membranes group, RWS) [RFU] | relative fluorescence units of saline in the receiving end ([2]; M2 two-membranes group, USM, 3 W/cm^2, 3 times 1 minute) [RFU] | gentamicin uptake in hair cells (green fluorescence), second turn and third turn (cochlear hair cells) | Substance
1 | 1633.33±72.63 | 6700±69.74 | about 2.83 folds | about 1.5 folds | 4206.83±202.93 | 10113±338.8 | about 3.74 folds | 631.5±21.12 | 2362±64.91 | about 5.67 folds | 309.7±20.54 | 1756.3±76.29 | about 6.91 folds | 2726.3±79.97 | 394.5±5.3 | about 4.77 folds | 285.7±7.45 | 1363.7±56.66 | – | biotin-FITC
2 | – | – | – | – | – | – | – | – | – | – | – | – | – | – | – | – | – | – | did not found the dot-like fluorescence | Gentamicin
